Source: US12023318B2, “Therapy for Inflammatory Linear Verrucous Epidermal Nevus (ILVEN)” (UCL Business Ltd, priority 2018, dated 2024)

Tested on: Inflammatory Linear Verrucous Epidermal Nevus (ILVEN)
Experiment: Topical cholesterol/simvastatin treatment of patients with ILVEN
Assay type: in vivo, human
Details: patient 9, localised ILVEN left arm; tried after no response to cholesterol/simvastatin
Description: Fourteen patients with ILVEN were recruited. Photographs were taken of all cases as a baseline. DNA was extracted directly from lymphocytes and from affected skin biopsy without culture, using standard methods. Where possible a second skin biopsy of affected skin was also obtained for primary keratinocyte culture and immortalization with HPV to establish a stable cell line. In a minority of cases a skin biopsy of normal skin was also taken for keratinocyte culture and immortalization. Histopathology of affected skin was obtained in all cases. Thirteen of the fourteen patients were treated with […]/2% simvastatin in Unguentum Merck, applied topically twice a day for a minimum period of three months in the first instance, and only applied to one designated area of affected skin, using the rest of the skin as an internal control. If there was no response in this time the treatment was stopped. Where there was a positive response the treatment has been continued, and extended gradually to different body areas.

CC(C)CCC[C@@H](C)[C@H]1CC[C@H]2[C@@H]3CC=C4C[C@@H](O)CC[C@]4(C)[C@H]3CC[C@]12C [cholesterol, Cholesterol]
Response to cholesterol only: no
